Data published in PMC3936431 (Biomolecules & Therapeutics, 2014).

Experiments:
[1] = Stability in stock solutions and plasma samples; assay type: physicochemical, rabbits; settings: for stock solution stability, mean %change: room temperature 12 h and 4°C 30 days
[2] = In vitro release, USP paddle method, phosphate buffer pH 7.4; assay type: physicochemical; settings: in the first 30 min; paddle 100 rpm, phosphate buffer pH 7.4, 37°C
[3] = Pharmacokinetic studies after single intravenous or rectal administration; settings: for Tmax / AUC(0-inf) / AUC(0-t): New Zealand white, rabbit, in vivo; for AUC(0-inf): AUC0-∞; for AUC(0-inf) / AUC(0-t) / AUC0-∞ / AUC0–30h: rabbits, plasma; for AUC(0-t): AUC0–30h
[4] = 100 mg/kg, rectal administration (suppository)
[5] = iv, 50 mg/kg, intravenous administration
[6] = intravenous administration, 50 mg/kg
[7] = rectal administration (suppository), 100 mg/kg

| drug released [2] [%] | Tmax ([3]; 100 mg/kg) [h] | AUC(0-inf) [3, 4] [ng·h/mL] | AUC(0-t) [3, 4] [ng·h/mL] | Tmax ([3]; iv, 50 mg/kg) [h] | AUC(0-inf) [3, 5] [ng·h/mL] | AUC(0-t) [3, 5] [ng·h/mL] | AUC0-∞ [3, 6] [ng·h/mL] | AUC0–30h [3, 6] [ng·h/mL] | AUC0-∞ [3, 7] [ng·h/mL] | AUC0–30h [3, 7] [ng·h/mL] | Compound | stock solution stability ([1]; 4°C for 30 days) | stock solution stability, mean %change [1] [%] | stock solution stability ([1]; room temperature for 12 h) |
| --- | --- | --- | --- | --- | --- | --- | --- | --- | --- | --- | --- | --- | --- | --- |
| – | – | – | – | – | – | – | – | – | – | – | CC[C@@]1(O)C(=O)OCc2c1cc1n(c2=O)Cc2cc3ccccc3nc2-1 [IS, camptothecin] | stable | < 7.7 | stable |
| 95 | 4 | 41600 ± 7200 | 32200 ± 6200 | 0.25 | 82300 ± 9500 | 71300 ± 8800 | 82330 ± 9470 | 71310 ± 8750 | 41620 ± 7240 | 32150 ± 6150 | CCc1c2c(nc3ccc(OC(=O)N4CCC(N5CCCCC5)CC4)cc13)-c1cc3c(c(=O)n1C2)COC(=O)[C@]3(O)CC [irinotecan, 7-ethyl-10-[4-(1-piperidino)-1-piperidino]-carbonyloxy-camptothecin] | stable | < 7.7 | stable |
